Legend:
[1] = 298.15 K, 101 kPa, Liquid; for viscosity: Capillary tube (Ostwald / Ubbelohde) method; for mass density: Pycnometric method
[2] = xn = mol fraction of the nth substance listed; conditions: 298.15 K, 101 kPa, Liquid; for viscosity: Capillary tube (Ostwald / Ubbelohde) method; for mass density: Pycnometric method

CCCCCC(C)O (centres undefined) [2-heptanol]
[1]
Conditions	mass density [kg/m3]	viscosity [mPa·s]
–	813.74	5.08

CCCCCC(C)O (centres undefined) [2-heptanol] + CCCCCCCCCC
[2]
Conditions	mass density [kg/m3]	viscosity [mPa·s]
x2 = 0	813.74	5.08
x2 = 0.0552	806.87	4.25
x2 = 0.0999	801.55	3.732
x2 = 0.1555	795.15	3.152
x2 = 0.1999	790.26	2.74
x2 = 0.2554	784.36	2.283
x2 = 0.2999	779.83	1.962
x2 = 0.3554	774.4	1.614
x2 = 0.3998	770.24	1.375
x2 = 0.4555	765.23	1.122
x2 = 0.4998	761.41	0.954
x2 = 0.5555	756.8	0.782
x2 = 0.5999	753.27	0.673
x2 = 0.6554	749.04	0.57
x2 = 0.6999	745.79	0.51
x2 = 0.7553	741.87	0.461
x2 = 0.8	738.84	0.44
x2 = 0.8555	735.2	0.432
x2 = 0.8998	732.39	0.438
x2 = 0.9553	728.98	0.457

CCCCC(C)O (centres undefined) [2-hexanol]
[1]
Conditions	mass density [kg/m3]	viscosity [mPa·s]
–	810.84	4.105

CCCCC(C)O (centres undefined) [2-hexanol] + CCCCCCCCCC
[2]
Conditions	mass density [kg/m3]	viscosity [mPa·s]
x2 = 0	810.84	4.105
x2 = 0.0555	802.94	3.569
x2 = 0.0999	797.23	3.17
x2 = 0.1554	790.5	2.725
x2 = 0.1998	785.43	2.41
x2 = 0.2556	779.42	2.062
x2 = 0.2999	774.91	1.821
x2 = 0.3555	769.55	1.561
x2 = 0.3998	765.52	1.384
x2 = 0.4554	760.72	1.198
x2 = 0.4998	757.1	1.076
x2 = 0.5554	752.79	0.952
x2 = 0.5997	749.54	0.875
x2 = 0.6555	745.66	0.802
x2 = 0.6999	742.72	0.76
x2 = 0.7555	739.25	0.725
x2 = 0.7998	736.62	0.708
x2 = 0.8555	733.48	0.699
x2 = 0.8999	731.11	0.698
x2 = 0.9555	728.29	0.703

CCCCCCC(C)O (centres undefined) [2-octanol]
[1]
Conditions	mass density [kg/m3]	viscosity [mPa·s]
–	817.05	6.429

CCCCCCC(C)O (centres undefined) [2-octanol] + CCCCCCCCCC
[2]
Conditions	mass density [kg/m3]	viscosity [mPa·s]
x2 = 0	817.05	6.429
x2 = 0.0554	810.77	5.222
x2 = 0.0998	805.83	4.638
x2 = 0.1554	799.74	3.972
x2 = 0.1999	794.99	3.491
x2 = 0.2554	789.2	2.951
x2 = 0.2999	784.67	2.564
x2 = 0.3555	779.16	2.136
x2 = 0.3998	774.9	1.836
x2 = 0.4554	769.69	1.509
x2 = 0.4999	765.64	1.284
x2 = 0.5555	760.74	1.046
x2 = 0.5998	756.94	0.889
x2 = 0.6555	752.3	0.73
x2 = 0.7	748.7	0.63
x2 = 0.7554	744.32	0.538
x2 = 0.7998	740.91	0.487
x2 = 0.8554	736.74	0.45
x2 = 0.8999	733.47	0.438
x2 = 0.9554	729.48	0.445

CCCCCCCCCC [decane]
[1]
Conditions	mass density [kg/m3]	viscosity [mPa·s]
–	726.35	0.845

CCCCCCCCCC [decane] + CCCCC(C)O
[2], x1 = 1
Conditions	mass density [kg/m3]	viscosity [mPa·s]
–	726.35	0.845

CCCCCCCCCC [decane] + CCCCCC(C)O
[2], x1 = 1
Conditions	mass density [kg/m3]	viscosity [mPa·s]
–	726.35	0.845

CCCCCCCCCC [decane] + CCCCCCC(C)O
[2], x1 = 1
Conditions	mass density [kg/m3]	viscosity [mPa·s]
–	726.35	0.845
